Consider seven compounds from ChEMBL document CHEMBL1141260, “Biologically active indole alkaloids from Kopsia arborea” (J Nat Prod, 2007).

Holding throughout (type): functional, cell-based
Assay [1] concerns KB. Briefly: Cytotoxicity against vincristine-sensitive human KB cells.
Assay [2] can be described thus: Cytotoxicity against vincristine-resistant human KB/VJ300 cells.
Assay [3] deals with Jurkat. Briefly: Cytotoxicity against human Jurkat cells.
Assay [4] can be described thus: Cytotoxicity against vincristine-resistant human KB/VJ300 cells in presence of 0.1 ug/mL vincristine.

Converted amounts (≈) assume the structure as drawn.

What is called IC50 is the point on the concentration scale where inhibition reaches its midpoint.

As to `COC(=O)C1=C2Nc3ccccc3[C@]23CCN2CC[C@H]1[C@H]([C@H](C)OC)[C@@H]23`, the IC50 was greater than 25 µg/mL in assay [1], greater than 25 µg/mL in assay [2], greater than 25 µg/mL in assay [3] and 26.8 µM in assay [4].
On to `COC(=O)C1=C2Nc3ccccc3[C@]23CCN2CC[C@H]1[C@H]([C@@H](C)OC)[C@@H]23`, for which the IC50 in assay [1] was greater than 25 µg/mL; in assay [2] it was greater than 25 µg/mL; in assay [3], greater than 25 µg/mL; in assay [4], 27.1 µM.
Take `CC[C@]12CCCNC13/C(=C\C(=O)OC)c1ccccc1N3C(=O)CC2` (some centres not stated) [ARBOLOSCINE]: the 50% inhibitory concentration (IC50) in assay [1] is 15 µg/mL (≈ 44.1 µM); in assay [2], 11 µg/mL (≈ 32.3 µM); in assay [4], 11.2 µM.
Turning to `C/C=C1/CN2CCc3c([nH]c4ccccc34)[C@H]2C[C@@H]1C(C)=O` [ARBORICINE], the IC50 in assay [1] was greater than 25 µg/mL; in assay [2] it was greater than 25 µg/mL; in assay [3], greater than 25 µg/mL; in assay [4] it was 36.7 µM.
For the compound `C/C=C1\[C@@H](C(C)=O)CCN2CCc3c([nH]c4ccccc34)[C@H]12` [ARBORICININE], the concentration for half-maximal inhibition (IC50) was greater than 25 µg/mL in assay [1], greater than 25 µg/mL in assay [2], greater than 25 µg/mL in assay [3] and 31.3 µM in assay [4].
Regarding `C=C1C2=Nc3ccccc3[C@@]23CCN2C/C(=C/C)[C@@H]1C[C@H]23` [VALPARICINE], the half-inhibitory concentration (IC50) in assay [1] came to 3.6 µg/mL (≈ 13 µM); in assay [2], 0.75 µg/mL (≈ 2.71 µM); in assay [3], 0.25 µg/mL (≈ 0.905 µM); in assay [4], 1.67 µM.
Regarding `CC[C@]12CCCN3CC[C@]4(C(=C(C(=O)OC)C1)Nc1ccccc14)[C@@H]32` [VINCADIFFORMINE], the concentration for half-maximal inhibition (IC50) in assay [1] came to 10.2 µg/mL (≈ 30.1 µM); in assay [2], 6.3 µg/mL (≈ 18.6 µM); in assay [3] it was 21.8 µg/mL (≈ 64.4 µM); in assay [4], 13.3 µM.
